According to the METLIN SMRT retention time set (Domingo-Almenara et al. 2019):

Test: gradient 5% acetonitrile 3 min, to 50% in 2 min, to 85% in 15 min, held 3 min, 100 µL/min
Conditions: column: Zorbax Extend-C18 2.1 x 50 mm; eluents: water / acetonitrile, 0.1% formic acid
How it was run: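 Data were gathered over 3 months by HPLC coupled to a quadrupole time-of-flight mass spectrometer, operated in positive and negative ionization mode. Mixtures of ~100 pure standards ran on a Zorbax Extend-C18 column (2.1 × 50 mm, 1.8 μm) at 100 μL/min, with water and acetonitrile each containing 0.1% formic acid and dead and dwell volumes of 40 μL and 900 μL. Retention time was read from adduct peaks picked by computer and checked manually.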

RP-LC retention time | SMILES
771 s | CCc1ccccc1NS(=O)(=O)c1cc2n(c1)CCN(CC)C2=O
736 s | CCc1ccc(S(=O)(=O)N2CCN(C3CCN(CCC(C)C)C3=O)CC2)cc1 (configuration not stated)
668 s | O=C(NC1CCN(c2cc(-c3ccc(F)cc3)[nH]n2)C1)c1ccccc1Br (configuration not stated)
890 s | COC1C(=O)N(c2cccc(F)c2)C12CCN(C(=O)Nc1ccccc1F)CC2 (configuration not stated)
933 s | COc1cccc(CNS(=O)(=O)c2ccc3c(c2)C(=O)N(C)c2ncccc2O3)c1
930 s | Cc1cc(C)cc(NC(=O)CN2C(=O)CCc3cc(S(=O)(=O)N4CCCCC4C)ccc32)c1 (configuration not stated)
831 s | CCC(C(=O)NCc1ccco1)n1nc(C)c2c(C)n(-c3ccccc3)nc2c1=O (configuration not stated)
906 s | CC(C)CCn1nc2c(S(=O)(=O)N3CCCCC3)cccn2c1=O
1020 s | O=C(C1COc2ccccc2O1)N(CCc1cccs1)Cc1ccco1 (configuration not stated)
972 s | CSc1ccccc1NC(=O)c1nnn(-c2nc3c(s2)CCCC3)c1C
798 s | O=C(NC1CCCCC1)c1ncoc1-c1ccccc1C(=O)N1CCCC1
978 s | Cn1c(C(=O)N2CCC(C(=O)NCc3ccccc3Cl)CC2)cc2oc3ccccc3c21
968 s | COc1ccc(Cl)cc1N1C=C(C#N)S(=O)(=O)c2ccc(F)cc21
862 s | O=C(NC1CC1)C1CCN(S(=O)(=O)c2ccc3[nH]c4c(c3c2)CCCCC4)CC1
664 s | O=C(NCCCN1CCN(c2ccccc2F)CC1)c1nnc(-c2ccccc2)o1
1040 s | Cc1cccc(-c2noc(-c3nn(CC(=O)NCC4CCCO4)c4ccccc34)n2)c1 (configuration not stated)
612 s | COc1cc(NC(=O)C2(C)CCCCC(=O)N2)cc(OC)c1 (configuration not stated)
902 s | CC(C)CC(=O)N1CCN(c2ccc(=O)n(-c3ccc(C(C)C)cc3)n2)CC1
746 s | CCN1CCn2cc(S(=O)(=O)Nc3ccc(C)cc3C)cc2C1=O
762 s | COc1ccc(OC)c(S(=O)(=O)N2C[C@@H](F)C[C@H]2C(=O)N2CCCCC2)c1
553 s | COc1ccc(Cl)cc1C(=O)N1CCCN(C2CCN(CC3CC3)C2=O)CC1 (configuration not stated)
749 s | COc1cccc(C(=O)NCCCn2cccc2)c1

RP-LC retention time | SMILES
1150 s | Cc1sc(-c2noc(C3CCC3)n2)cc1NC(=O)c1ccc(C(F)(F)F)cc1
821 s | O=C(Nc1nccs1)c1cc2cc([N+](=O)[O-])ccc2s1
849 s | c1ccc(C(NCCNC(c2ccccc2)c2ccccc2)c2ccccc2)cc1
714 s | Cc1oc(C2CCN(C(=O)Nc3ccc(Cl)cc3F)CC2)nc1C(=O)N(C)C
1070 s | Cc1ccc(Sc2nccnc2N2CCC(C(=O)NCc3ccc(F)cc3F)CC2)cc1
1060 s | CCc1ccccc1NC(=O)CSc1nccc(N2CCN(c3cc(C)ccc3C)CC2)n1
695 s | COCCNC(=O)C(C)n1nc(C)c2c(C)n(-c3ccccc3)nc2c1=O (configuration not stated)
912 s | CC1CCN(C(=O)c2cn(-c3ccc(-c4nc(C5CC5)no4)cn3)cn2)CC1
986 s | O=C(NCc1ccc(Cl)cc1)c1ccc(Oc2nccnc2N2CCSCC2)cc1
759 s | Cc1ccc(-c2cc3c4nnc(CCC(=O)NCCCOC(C)C)n4ccn3n2)cc1C
641 s | COCCCNC(=O)C1c2ccccc2CCN1C(C)=O (configuration not stated)
711 s | CCC(C)NC(=O)c1cnn(-c2cc(-c3nc(C(C)(C)C)no3)ccn2)c1C (configuration not stated)
1160 s | COC(=O)c1cc(C2CC2)nc2c1c(=O)n(Cc1cccc(Cl)c1)c(=O)n2C
690 s | N#Cc1cccc(-c2cn3c(n2)N(C(=O)C2CCC2)CCC3)c1
770 s | CCc1ccc(NC(=O)N2CCC(OC3CCN(S(C)(=O)=O)CC3)CC2)cc1
1210 s | Cc1ccc(-c2noc(-c3cccc(S(=O)(=O)NCc4ccccc4)c3)n2)cc1
902 s | CCc1noc(NC(C)=O)c1-c1ccc(C)c(S(=O)(=O)Nc2ccc(C(F)(F)F)cc2)c1
860 s | COc1ccc(NC(=O)C2CCN(c3nc4ccc(-c5cncnc5)nc4s3)CC2)cc1
621 s | COCC1(O)CCOC2(CCN(C(=O)c3cccs3)CC2)C1 (configuration not stated)
972 s | Cc1nc2c(sc3nc(-c4ccccc4)ccc32)c(=O)n1CC(=O)NCc1ccccc1
872 s | O=C(NCc1csc(-c2ccccc2)n1)C1CCN(S(=O)(=O)c2cccs2)CC1
883 s | CCN1C(=O)COc2ccc(-c3nc(NC(=O)c4ccco4)sc3C)cc21

RP-LC retention time | SMILES
888 s | COc1cc(-c2noc(-c3nn(-c4cccc(C)c4)ccc3=O)n2)cc(OC)c1OC
603 s | CCC(=O)N1CCN(Cc2nc3cc(NC(=O)CC(C)C)ccc3n2C)CC1
549 s | c1ccc(-c2cn3c(n2)SCC3)cc1
1130 s | CCc1cccc(NS(=O)(=O)c2c(C)sc(C)c2-c2cc(C)[nH]n2)c1
886 s | CCc1cccc(NC(=O)Cc2nc(C)c(C(=O)NCC(C)C)s2)c1
854 s | Cc1ccc(-c2ccc3nnc(CCC(=O)NC4CCC(C)CC4)n3n2)cc1C (configuration not stated)
783 s | CSc1ncc(Cl)c(C(=O)Nc2cc(C)on2)n1
729 s | COCC1CN(C(=O)c2ccoc2C)CCC1(F)F (configuration not stated)
1170 s | O=C(Nc1cccc(Cl)c1)Nc1nccn(-c2ccc3c(c2)CCC3)c1=O
799 s | CCCNC(=O)N1CCCC(C)(C(=O)NCc2ccc(C)cc2)C1 (configuration not stated)
745 s | COc1ccc(CCNS(=O)(=O)c2cccc3cccnc23)cc1OC
847 s | Cc1nnc(-c2ccc3ccn(CC(=O)Nc4cccc(Cl)c4)c3c2)o1
644 s | COc1ccc(NC(=O)Cn2c(N3CCOCC3)nc(C)cc2=O)cc1F
922 s | Cc1cc(C)cc(NC(=O)N2CCCC2c2nc(-c3ccccc3)no2)c1 (configuration not stated)
936 s | CCOc1ccccc1-c1nc(-c2cn(-c3cccc(F)c3)nn2)no1
893 s | Cc1ccc(NC(=O)C2CCCN(C(=O)C3Sc4ccccc4NC3=O)C2)cc1Cl (configuration not stated)
727 s | CCSCCOC(=O)C1=C(C)NC2=C(C(=O)CCC2)C1c1ccccc1OC (configuration not stated)
855 s | CCC(=O)N1CCc2cc(-c3ccc(C(=O)N4CCN(c5ncccn5)CC4)cc3)ccc21
1260 s | CCCCCn1c(=O)c2ccccc2n(Cc2nc(-c3ccccc3Cl)no2)c1=O
762 s | CCc1cccc(NC(=O)C2CCN(C(=O)C3Sc4ccccc4NC3=O)CC2)c1 (configuration not stated)
1100 s | Cc1cc(C#N)cc(C)c1Oc1nc(Nc2ccc(C#N)cc2)nc(N)c1Br

SMILES | RP-LC retention time
COc1ccccc1CNC(=O)CN1CCCC1=O | 631 s
COc1cccc(C(=O)N2CCC3(CC2)NCc2ccccc2-n2ccnc23)c1 | 606 s
